Reference: patent US20230241023A1, “STABILIZATION OF 1,2,4-TRIOXANE COMPOUNDS BY CHLOROGENIC ACIDS” (Artemiflow GmbH, priority 2020, published 2023)

Assay: Stability of artemisinin in presence of additives (heating in aqueous solution with glucose, 1H NMR quantification)
Assay type: physicochemical
Conditions: glucose 1 mol equivalent, 93° C. for 90 minutes, open to the atmosphere
From the text: Solvents were obtained from commercial suppliers and used without further purification. Dried leaves of Artemisia annua were obtained from ArtemiLife Corp. and Artemisinin was previously prepared and purified by crystallization using the protocols detailed in Horváth, Z.; Horosanskaia, E.; Lee, J. W.; Lorenz, H.; Gilmore, K.; Seeberger, P. H.; Seidel-Morgenstern, A. Recovery of Artemisinin from a Complex Reaction Mixture Using Continuous Chromatography and Crystallization. Org. Process Res. Dev. 2015, 19, 624-634. The Artemisinin crystals obtained thereby were ground prior to use.
Ground coffee used in extractions was preground 100% Arabica beans from Café Intención. Coffee was prepared in a Rowenta C T 3818 Milano coffee maker using size 4 coffee filters (Melitta brand). Coffee beans (100% Arabica) were preground from. 100 g of ground coffee was added to the cone coffee filter in the machine and 1350 mL of water used to make the coffee using the single setting. Coffee was then transferred to a thermos, stored at room temperature, and used without further modification.
Two solvents were tested, tap water and premade black coffee. […] All mixtures were heated to 93° C. for 90 minutes in 10 mL glass vials open to the atmosphere. Halfway through heating, 1-2 mL of tap water was added to compensate for evaporation. […]

clean loss of artemisinin (1H NMR) (Example 1 (for comparison): 5 mL tap water): 32%
clean loss of artemisinin (1H NMR) (Example 2 (inventive): 5 mL premade black coffee (source of chlorogenic acids)): 19%
SMILES: C[C@@H]1CC[C@H]2[C@@H](C)C(=O)O[C@@H]3O[C@@]4(C)CC[C@@H]1[C@]32OO4 [artemisinin]
